{
  "source": "patent US20130183237A1",
  "about": "(priority 2007, published 2013)",
  "biological_target": "thrombin (Homo sapiens, UniProt P00734)",
  "conditions": "fibrinogen 3 mg/ml, thrombin 20 nM, 37° C., no pre-incubation, dose-dependent",
  "protocol": "200 μl of fibrinogen (final concentration 3 mg/ml) were incubated with 100 μl of peptides (various concentrations) at 37° C. Clotting of fibrinogen was initiated by the addition of 100 μl of thrombin (final concentration 20 nM). All reagents and samples were dissolved in 50 mM Tris buffer (pH 7.4) containing 100 mM NaCl.",
  "data": [
    {"sequence": "APPFDFEAIPEEYLDDES [AP18]", "values": [
      {"measurement": "fibrinogen clotting time", "value": "prolonged"}
    ]}
  ]
}
